The source made the active and inactive calls. The calls are words filed in the database; no cut-off is given here.
Key:
[1] = tested on: Influenza A virus; experiment: Antiviral activity against Influenza A virus (A/PR 8/34 (H1N1)) infected in MDCK cells assessed as reduction in viral RNA synthesis at 2 uM treated at 5 hrs post-infection by RT-qPCR analysis; type: functional, organism-based; conditions: A/Puerto Rico/8/1934(H1N1)
[2] = tested on: Influenza A virus H3N2; experiment: Antiviral activity against Influenza A virus H3N2 A/HK/7/87 infected in MDCK cells assessed as reduction in virus induced cytopathic effect after 72 hrs by MTS assay; type: functional, organism-based
[3] = tested on: Influenza A virus; experiment: Antiviral activity against Influenza A virus (A/PR 8/34 (H1N1)) clone 2 infected in MDCK cells assessed as reduction in virus-induced cytopathic effect measured after 72 hrs by microscopic analysis; type: functional, organism-based; conditions: A/Puerto Rico/8/1934(H1N1)
[4] = tested on: Influenza A virus; experiment: Antiviral activity against Influenza A virus (A/PR 8/34 (H1N1)) clone 1 infected in MDCK cells assessed as reduction in virus-induced cytopathic effect measured after 72 hrs by microscopic analysis; type: functional, organism-based; conditions: A/Puerto Rico/8/1934(H1N1)
[5] = tested on: Influenza A virus; experiment: Antiviral activity against Influenza A virus (A/PR 8/34 (H1N1)) infected in MDCK cells assessed as reduction in virus-induced cytopathic effect measured after 72 hrs by MTS assay; type: functional, organism-based; conditions: A/Puerto Rico/8/1934(H1N1)
[6] = tested on: Influenza B virus; experiment: Antiviral activity against Influenza B virus B/HK/5/72 infected in MDCK cells assessed as reduction in virus induced cytopathic effect after 72 hrs by microscopy based method; type: functional, organism-based
[7] = molecular target: Hemagglutinin (Influenza A virus (A/Puerto Rico/8/1934(H1N1))) (UniProt P03452); experiment: Inhibition of Influenza A virus (A/PR 8/34 (H1N1)) hemagglutinin infected in MDCK cells assessed as reduction in virus binding to cell surface; type: cell-based
[8] = tested on: Influenza A virus H3N2; experiment: Antiviral activity against Influenza A virus H3N2 A/HK/7/87 infected in MDCK cells assessed as reduction in virus induced cytopathic effect after 72 hrs by microscopy based method; type: functional, organism-based
[9] = molecular target: Cathepsin B (Homo sapiens) (UniProt P07858); experiment: Inhibition of human liver cathepsin B using Z-Phe-Arg-AMC as substrate preincubated for 15 mins followed by substrate addition and measured for 60 mins by fluorescence assay; conditions: time 75.0 min
[10] = Selectivity index, ratio of CC50 for MDCK cells to EC50 for antiviral activity against Influenza A virus (A/Puerto Rico/8/1934(H1N1)) infected in MDCK cells; type: toxicity, cell-based; conditions: dog, read-out: Ratio CC50/EC50
[11] = tested on: Influenza A virus; experiment: Antiviral activity against Influenza A virus (A/PR 8/34 (H1N1)) infected in human Calu-3 cells assessed as reduction in virus-induced cytopathic effect measured after 72 hrs by microscopic analysis; type: functional, organism-based; conditions: A/Puerto Rico/8/1934(H1N1), Calu-3, 72 h
[12] = Selectivity index, ratio of MCC for human HeLa cells to EC50 for antiviral activity against Influenza A virus (A/PR 8/34 (H1N1)) infected in human Calu-3 cells; type: toxicity, cell-based; conditions: HeLa cells (MCC) and Calu-3 cells (EC50), read-out: Selectivity Index
[13] = tested on: Influenza A virus; experiment: Antiviral activity against Influenza A virus (A/PR 8/34 (H1N1)) infected in human Calu-3 cells assessed as reduction in virus-induced cytopathic effect measured after 72 hrs by MTS assay; type: functional, organism-based; conditions: A/Puerto Rico/8/1934(H1N1), Calu-3, 72 h
[14] = molecular target: Procathepsin L (Homo sapiens) (UniProt P07711); experiment: Inhibition of human liver cathepsin L using Z-Phe-Arg-AMC as substrate preincubated for 15 mins followed by substrate addition and measured for 60 mins by fluorescence assay; conditions: time 75.0 min
[15] = Cytotoxicity against HELF cells; type: cell-based; conditions: human
[16] = molecular target: T1, Cathepsin F (Homo sapiens) (UniProt Q9UBX1); experiment: Inhibition of recombinant human cathepsin F expressed in baculovirus infected insect cells using Z-Phe-Arg-AMC as substrate preincubated for 15 mins followed by substrate addition and measured for 60 mins by fluorescence assay; conditions: time 75.0 min
T1 sequence (whole entry): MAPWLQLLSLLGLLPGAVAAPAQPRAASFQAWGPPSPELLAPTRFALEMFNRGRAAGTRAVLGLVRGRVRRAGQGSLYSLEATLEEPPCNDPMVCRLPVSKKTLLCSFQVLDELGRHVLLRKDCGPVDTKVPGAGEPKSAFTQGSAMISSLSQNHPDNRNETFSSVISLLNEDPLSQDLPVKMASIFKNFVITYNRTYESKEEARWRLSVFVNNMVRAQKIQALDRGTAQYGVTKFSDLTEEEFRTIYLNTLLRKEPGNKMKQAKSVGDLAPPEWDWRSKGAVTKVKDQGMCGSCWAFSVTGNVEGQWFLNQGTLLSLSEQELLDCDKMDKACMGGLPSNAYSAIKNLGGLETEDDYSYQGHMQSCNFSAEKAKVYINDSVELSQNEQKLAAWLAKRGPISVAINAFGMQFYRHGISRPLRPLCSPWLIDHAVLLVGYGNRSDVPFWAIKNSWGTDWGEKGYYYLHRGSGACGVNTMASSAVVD

[17] = tested on: Influenza A virus; experiment: Antiviral activity against Influenza A virus (A/PR 8/34 (H1N1)) infected in MDCK cells assessed as reduction in viral RNA synthesis at 50 uM treated at 1 hr post-infection by RT-qPCR analysis; type: functional, organism-based; conditions: A/Puerto Rico/8/1934(H1N1)
[18] = tested on: Influenza B virus; experiment: Antiviral activity against Influenza B virus B/HK/5/72 infected in MDCK cells assessed as reduction in virus induced cytopathic effect after 72 hrs by MTS assay; type: functional, organism-based
[19] = tested on: Influenza A virus; experiment: Antiviral activity against Influenza A virus (A/PR 8/34 (H1N1)) clone 1 infected in MDCK cells assessed as reduction in virus-induced cytopathic effect measured after 72 hrs by MTS assay; type: functional, organism-based; conditions: A/Puerto Rico/8/1934(H1N1)
[20] = molecular target: Hemagglutinin (Influenza A virus (A/Puerto Rico/8/1934(H1N1))) (UniProt P03452); experiment: Inhibition of Influenza A virus (A/PR 8/34 (H1N1)) hemagglutinin transfected in human HeLa cells assessed as reduction in low pH-indued polykaryon formation at 100 uM preincubated for 15 mins followed by pH 5.2 buffer addition and measured after 5 mins by giemsa staining based microscopic analysis; type: cell-based; conditions: time 20.0 min
[21] = tested on: Influenza A virus (H1N1); experiment: Antiviral activity against Influenza A virus (H1N1) A/Virginia/ATCC3/2009 infected in MDCK cells assessed as reduction in virus-induced cytopathic effect measured after 72 hrs by microscopic analysis; type: functional, organism-based
[22] = Selectivity index, ratio of MCC for HELF cells to EC50 for antiviral activity against Influenza A virus (A/PR 8/34 (H1N1)) infected in human Calu-3 cells; type: toxicity, cell-based; conditions: HELF cells (MCC) and Calu-3 cells (EC50), read-out: Selectivity Index
[23] = Cytotoxicity against MDCK cells assessed as reduction in cell viability measured after 72 hrs by MTS assay; type: cell-based, Canis lupus familiaris; conditions: dog
[24] = tested on: Influenza A virus (H1N1); experiment: Antiviral activity against Influenza A virus (H1N1) A/Virginia/ATCC3/2009 infected in MDCK cells assessed as reduction in virus-induced cytopathic effect measured after 72 hrs by MTS assay; type: functional, organism-based
[25] = Cytotoxicity against MDCK cells assessed as change in cell morphology measured after 72 hrs by microscopic analysis; type: cell-based, Canis lupus familiaris; conditions: dog
[26] = tested on: Influenza A virus; experiment: Antiviral activity against Influenza A virus (A/PR 8/34 (H1N1)) clone 2 infected in MDCK cells assessed as reduction in virus-induced cytopathic effect measured after 72 hrs by MTS assay; type: functional, organism-based; conditions: A/Puerto Rico/8/1934(H1N1)
[27] = molecular target: T2, Transmembrane protease serine 11D (Homo sapiens) (UniProt O60235); experiment: Inhibition of recombinant human N-terminal His-tagged HAT (Ala42 to Ile418 residues) expressed in mouse NSO cells using Boc-Gln-Ala-Arg-AMC as substrate preincubated for 15 mins followed by substrate addition and measured for 60 mins by fluorescence assay; conditions: time 75.0 min
T2 sequence (whole entry): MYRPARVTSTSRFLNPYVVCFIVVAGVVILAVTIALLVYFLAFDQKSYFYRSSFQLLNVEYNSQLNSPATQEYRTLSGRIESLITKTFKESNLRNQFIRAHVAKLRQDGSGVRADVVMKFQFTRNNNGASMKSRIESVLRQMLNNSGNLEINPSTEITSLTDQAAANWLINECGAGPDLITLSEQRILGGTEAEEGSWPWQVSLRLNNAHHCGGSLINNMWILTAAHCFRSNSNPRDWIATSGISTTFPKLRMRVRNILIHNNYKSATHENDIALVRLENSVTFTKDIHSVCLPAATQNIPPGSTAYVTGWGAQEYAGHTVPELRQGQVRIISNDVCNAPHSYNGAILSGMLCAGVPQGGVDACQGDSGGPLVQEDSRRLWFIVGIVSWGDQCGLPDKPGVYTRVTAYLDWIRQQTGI

[28] = Cytotoxicity against human HeLa cells; type: cell-based
[29] = molecular target: Trypsin (Homo sapiens) (UniProt P07477+P07478+P35030); experiment: Inhibition of human trypsin using Boc-Gln-Ala-Arg-AMC as substrate preincubated for 15 mins followed by substrate addition and measured for 60 mins by fluorescence assay; type: protein assay; conditions: time 75.0 min
[30] = molecular target: Hemagglutinin (Influenza A virus (A/Puerto Rico/8/1934(H1N1))) (UniProt P03452); experiment: Inhibition of Influenza A virus (A/PR 8/34 (H1N1)) hemagglutinin transfected in human HeLa cells assessed as reduction in low pH-indued polykaryon formation preincubated for 15 mins followed by pH 5.2 buffer addition and measured after 5 mins by giemsa staining based microscopic analysis; type: cell-based; conditions: time 20.0 min
[31] = tested on: Influenza A virus; experiment: Antiviral activity against Influenza A virus (A/PR 8/34 (H1N1)) infected in MDCK cells assessed as reduction in virus-induced cytopathic effect measured after 72 hrs by microscopic analysis; type: functional, organism-based; conditions: A/Puerto Rico/8/1934(H1N1)
[32] = molecular target: Hemagglutinin (Influenza A virus (A/Puerto Rico/8/1934(H1N1))) (UniProt P03452); experiment: Inhibition of Influenza A virus (A/PR 8/34 (H1N1)) hemagglutinin infected in MDCK cells assessed as reduction in virus binding to cell surface at 200 uM relative to control; type: cell-based

Sequence of Hemagglutinin (Influenza A virus (A/Puerto Rico/8/1934(H1N1))) (P03452 whole entry): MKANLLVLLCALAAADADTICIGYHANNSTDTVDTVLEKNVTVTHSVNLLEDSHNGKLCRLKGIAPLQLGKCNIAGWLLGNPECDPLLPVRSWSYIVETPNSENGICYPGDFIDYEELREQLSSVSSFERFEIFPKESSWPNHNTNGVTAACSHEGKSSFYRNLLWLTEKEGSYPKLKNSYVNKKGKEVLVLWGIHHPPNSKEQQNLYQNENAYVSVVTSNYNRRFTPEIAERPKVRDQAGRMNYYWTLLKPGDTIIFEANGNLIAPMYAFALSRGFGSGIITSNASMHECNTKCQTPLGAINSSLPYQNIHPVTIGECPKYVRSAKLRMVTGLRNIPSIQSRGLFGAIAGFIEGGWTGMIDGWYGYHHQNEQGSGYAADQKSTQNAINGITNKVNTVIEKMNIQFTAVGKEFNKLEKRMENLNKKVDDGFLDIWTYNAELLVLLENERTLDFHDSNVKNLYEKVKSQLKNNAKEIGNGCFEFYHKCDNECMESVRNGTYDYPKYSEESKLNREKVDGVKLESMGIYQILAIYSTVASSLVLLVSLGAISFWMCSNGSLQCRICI
Sequence of Procathepsin L (Homo sapiens) (P07711 114-333 limits assumed): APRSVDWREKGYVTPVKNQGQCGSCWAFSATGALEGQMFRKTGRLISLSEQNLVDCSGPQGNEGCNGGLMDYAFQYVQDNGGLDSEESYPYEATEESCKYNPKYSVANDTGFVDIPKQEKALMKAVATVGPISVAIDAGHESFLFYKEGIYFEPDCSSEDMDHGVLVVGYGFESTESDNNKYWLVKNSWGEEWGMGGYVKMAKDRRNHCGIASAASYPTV

Row | Compound | EC50 [4] | EC50 [5] | inhibition [9] | selectivity ratio [10] | inhibition [14] | inhibition [16] | EC50 [19] | CC50 at 72 h [23] | MCC at 72 h [25] | inhibition [27] | inhibition [29] | EC50 [31] | also measured
1 | Cc1onc(-c2ccccc2)c1C(=O)N1CCN(c2ccc([N+](=O)[O-])cc2Cl)CC1 |  |  |  |  |  |  |  |  |  |  |  |  | Activity [1]: Active
2 | COC(=O)C[C@H](NC(=O)OC(C)(C)C)C(=O)N(Cc1ccc(F)cc1)C1(C(=O)NCc2ccccc2)CCN(Cc2ccccc2)CC1 | > 100 µM | 2.7 µM | inactive | 18 | inactive | inactive | > 100 µM | > 100 µM | > 100 µM | inactive | inactive | 1.9 µM | Activity [2]: inactive; EC50 [3]: > 100 µM; Activity [6]: inactive; inhibition [7]: inactive; Activity [8]: inactive; EC50 [11]: 1.8 µM; selectivity ratio [12]: ≥ 30; EC50 [13]: 3 µM; MCC [15]: 100 µM; Activity [17]: Active; Activity [18]: inactive; inhibition [20]: 100%; Activity [21]: inactive; selectivity ratio [22]: ≥ 30; Activity [24]: inactive; EC50 [26]: > 100 µM; MCC [28]: 100 µM; inhibition [30]: Dose-dependent effect
3 | NC(=O)c1ncn([C@@H]2O[C@H](CO)[C@@H](O)[C@H]2O)n1 [RIBAVIRIN] | 11 µM | 31 µM |  |  |  |  | 20 µM | 58 µM | 100 µM |  |  | 22 µM | 
4 | COC(=O)C[C@H](NC(=O)OCc1ccccc1)C(=O)N(C1CC1)C1(C(=O)NCc2ccccc2)CCN(Cc2ccccc2)CC1 |  | 1.8 µM | inactive | 40 | inactive | inactive |  | 8.1 µM | 20 µM | inactive | inactive | 2 µM | 
5 | CCCCCCCCCCCCCCCCCCCCCCOCC(C)(COCCCCCCCCCCCCCCCCCCCCCC)CO[C@]1(C(=O)O)C[C@H](OS(=O)(=O)O)[C@@H](NC(C)=O)[C@H]([C@H](O)[C@@H](COS(=O)(=O)O)OS(=O)(=O)O)O1 |  |  |  |  |  |  |  |  |  |  |  |  | inhibition [32]: 96%

Reference: ChEMBL document CHEMBL4680243, “N-benzyl 4,4-disubstituted piperidines as a potent class of influenza H1N1 virus inhibitors showing a novel mechanism of hemagglutinin fusion peptide interaction” (Eur J Med Chem, 2020)
